Source: patent publication US20250195510A1, “NOVEL METHODS” (priority 2022, published 2025)

What was measured:
Sprague-Dawley rats [1] = test: Novelty Induced Hypophagia (NIH); format: in vivo, rat; conditions: naïve rats, Luma 1 mg/kg IP days 1 and 3; control 65.4
Experimental: (§1) Behavioral Evaluation. All behavioral tests are performed in the morning with adult male Sprague-Dawley rats (n=9-11 per group for the experiments with LPS, and n=13-14 per group for the naïve rats).
Novelty Induced Hypophagia (NIH). This conflict-based behavioral task assesses the impact of environmental stressors on conditioned approach response for a palatable food reward (Ramaker and Dulawa, 2017). Rats are habituated with diluted (1:3 milk/water) sweetened condensed milk which is accessible in their home cage for 1 hour each day for 3 consecutive days. Initially, animals are tested in their home cage under normal lighting. For testing after drug treatment, the latency to drink is recorded after rats are placed in a novel clean cage of the same dimensions with no bedding and under dim lighting (˜50 lux) with white paper under the cages to enhance aversion.
Basal levels of anxiety are also tested using 2 commonly used tests, NSFT and novelty induced hypophagia (NIH), in the absence of LPS. It is well documented that rodents experience increased stress levels when placed in a novel environment (Ramaker and Dulawa, 2017). These two tests exploit this feature by measuring latency to feed in food-deprived rats (NSFT), or latency to receive a reward to which they have been habituated prior to the test (NIH).

[2] = test system: Serum cytokine concentration; test: Serum cytokine protein (Multiplex MSD) after acute restraint stress; format: in vivo, mouse; conditions: restraint stress 2 h + Luma 3 mg/kg IP
Experimental: Multiplex Assays. In mouse serum, protein levels of IL-1b, IL-6, IL-10 and TNF-alpha are measured using a V-Plex Meso Scale Discovery (MSD) Multiplex spot assay Mouse Neuroinflammation 1 panel (Meso Scale Diagnostics, Rockville, MD). All samples are run in duplicates or triplicates according to manufacturer instructions and analyzed with MSD Discovery Workbench software (Meso Scale Diagnostics).
Restraint Stress Protocol.
Control mice receive vehicle treatment and are returned to their home cage before sample collection. Protein concentration is measured using the Multiplex MSD assay V-Plex technology, normalized to the control group. Results are expressed in pg/mL.

Sprague-Dawley rats [3] = test: Home cage feeding test (HCFT); format: in vivo, rat; conditions: naïve rats, Luma 1 mg/kg IP days 1 and 3; control 6.0
From the text: Novelty Suppressed Feeding Test (NSFT). This test measures consumption of a familiar food in a novel environment, relying on rodents' aversion to eating in a novel environment after a period of food deprivation ([…] and Dulawa, “Identifying fast-onset antidepressants using rodent models,” Mol. Psychiatry 22:656-665 (2017)). Rats are food-deprived overnight and placed in an open field (76.5×76.5×40 cm^3) with a small amount of food pellets (6 pellets total). At the time of the test, rats are exposed to the open field for the first time (novelty) and allowed to explore it for a maximum of 15 minutes under red light. The latency for the animal to approach the food pellets and take its first bite is manually scored. A home cage feeding test (HCFT) is performed afterwards to ensure latency measured in NSFT is not a matter of difference in hunger. A home cage food intake analysis evaluated the amount of food eaten (in grams) over a period of 10 minutes following the end of the entire test session.

Sprague-Dawley rats [4] = test: Novelty Suppressed Feeding Test (NSFT); format: in vivo, rat; conditions: naïve rats, Luma 1 mg/kg IP days 1 and 3, no LPS; control 657.8
Experimental: as §1
Novelty Suppressed Feeding Test (NSFT). This test measures consumption of a familiar food in a novel environment, relying on rodents' aversion to eating in a novel environment after a period of food deprivation (Ramaker and Dulawa, “Identifying fast-onset antidepressants using rodent models,” Mol. Psychiatry 22:656-665 (2017)). Rats are food-deprived overnight and placed in an open field (76.5×76.5×40 cm^3) with a small amount of food pellets (6 pellets total). At the time of the test, rats are exposed to the open field for the first time (novelty) and allowed to explore it for a maximum of 15 minutes under red light. The latency for the animal to approach the food pellets and take its first bite is manually scored. A home cage feeding test (HCFT) is performed afterwards to ensure latency measured in NSFT is not a matter of difference in hunger. A home cage food intake analysis evaluated the amount of food eaten (in grams) over a period of 10 minutes following the end of the entire test session.
Basal levels of anxiety are also tested using 2 commonly used tests, NSFT and novelty induced hypophagia (NIH), in the absence of LPS. […]

Q: With CN1CCN2c3c(cccc31)[C@@H]1CN(CCCC(=O)c3ccc(F)cc3)CC[C@@H]12 [Lumateperone, 4-((6bR,10aS)-3-methyl-2,3,6b,9,10,10a-hexahydro-1H-pyrido[3′,4′: 4,5]pyrrolo[1,2,3-de]quinoxaline-8 (7H)-yl)-1-(4-fluorophenyl)-1-butanone] as the molecule, how does the “NIH - novel cage latency to drink” value (Sprague-Dawley rats [1]) read?
A: 30.5 s

Q: What about the “Serum IL-1b concentration” value ([2]; control 0.7, stressed 1.65) of the same molecule?
A: 0.81 pg/mL

Q: What about the “Serum TNF-alpha concentration” value ([2]; control 6.75, stressed 10.28) of the same molecule?
A: 7.67 pg/mL

Q: And the “Serum IL-10 concentration” value ([2]; control 17.18, stressed 86.78)?
A: 70.03 pg/mL

Q: What about the “Serum IL-6 concentration” value ([2]; control 141.3, stressed 627.4) of the same molecule?
A: 137.7 pg/mL

Q: What about the “Control HCFT food eaten” value (Sprague-Dawley rats [3]) of the same molecule?
A: 6.0 g

Q: And the “NSFT latency to feed” value (Sprague-Dawley rats [4])?
A: 507.9 s
